Measured values reported in ChEMBL document CHEMBL3886324, “Pyrimidinylpiperidinyloxypyridone analogues as GPR119 modulators” (2015).

Test: Tet-Inducible cAMP Assay: A human-mouse chimeric GPR119 expression construct encoding 3 copies of the FLAG epitope tag, the first 198 amino acids of human GPR119 and the C-terminal 137 amino acids of the mouse receptor was cloned into a tetracycline inducible vector pcDNA5/FRT/TO (Invitrogen #V6520-20), which includes a hygromycin-resistance marker. Tightly controlled receptor expression was achieved by stable integration of this construct into the genome of a specific host cell line, Flp-In-T-Rex-HEK293, expressing the tetracycline repressor (Invitrogen). Once a stable hygromycin-resistant cell line was generated, the cells were maintained at 37° C. in a humidified 5% CO2 atmosphere in culture medium consisting of Dulbecco's modified Eagle's medium (DMEM; Invitrogen #11960) supplemented with 2 mM L-glutamine, 10% fetal bovine serum, 200 μg/ml hygromycin B, and 15 μg/ml blasticidin.

Which EC50 does the source give for `Cc1nc(-n2cc(Cl)c(OC3CCN(c4ncc(Cl)cn4)CC3)cc2=O)ccc1N1CCC(O)C1=O` (stereo not drawn) here?
Its EC50 is 2 nM.

With `Cc1nc(-n2cc(Cl)c(OC3CCN(c4ncc(Cl)cn4)CC3)cc2=O)ccc1N1CC[C@@H](O)C1=O` as the compound, how does the EC50 read?
Its EC50 is 3 nM.

For `Cc1nc(-n2ccc(OC3CCN(c4ncc(Cl)cn4)CC3)cc2=O)ccc1N1CCC(O)C1=O` (stereo not drawn), which EC50 is on record?
The EC50 was 10 nM.
